# Literature values in patent publication US6225288A, “Gamma-ketoacid dipeptides as inhibitors of caspase-3” (Merk Frosst Canada & Co., priority 2000, dated 2001).
# Columns and labels:
# [1] = target: T1, caspase-3 (Homo sapiens, UniProt P42574)
# T1 sequence (P42574 29-175 limits assumed): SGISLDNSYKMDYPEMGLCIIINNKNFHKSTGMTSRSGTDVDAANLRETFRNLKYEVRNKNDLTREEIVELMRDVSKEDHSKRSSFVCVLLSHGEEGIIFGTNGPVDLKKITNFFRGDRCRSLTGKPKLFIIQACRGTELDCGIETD
# T1 sequence (P42574 176-277 limits assumed): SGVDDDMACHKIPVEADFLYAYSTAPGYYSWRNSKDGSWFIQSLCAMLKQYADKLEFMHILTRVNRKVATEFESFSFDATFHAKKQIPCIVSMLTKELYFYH
# [2] = target: T2, caspase-1 (Homo sapiens, UniProt P29466)
# T2 sequence (P29466 120-297 limits assumed): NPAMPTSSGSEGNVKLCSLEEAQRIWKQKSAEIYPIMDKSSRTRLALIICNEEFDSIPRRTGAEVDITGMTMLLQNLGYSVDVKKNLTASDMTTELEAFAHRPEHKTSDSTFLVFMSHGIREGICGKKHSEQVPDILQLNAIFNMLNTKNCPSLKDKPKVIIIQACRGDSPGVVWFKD
# T2 sequence (P29466 317-404 limits assumed): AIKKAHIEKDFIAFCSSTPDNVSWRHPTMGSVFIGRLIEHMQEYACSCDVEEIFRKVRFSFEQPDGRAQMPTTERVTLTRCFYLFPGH
substance,measurement,setting,value
Ac-YVAD-CHO,Ki,[1],12 µM
same,Ki,[2],< 0.001 µM
